From article PMC9127186, “Molecular Basis Underlying Hepatobiliary and Renal Excretion of Phenolic Acids of Salvia miltiorrhiza Roots (Danshen)” (Frontiers in Pharmacology, 2022)

How the values were obtained:
rat Oct2 = target: T1, rat Oct2 (Rattus norvegicus, UniProt Q9R0W2); test: Cellular transport assay, HEK-293 cells expressing rat Oct2; details: Danshen phenolic acid at 100 μM final concentration, 10 min; rat Oct2-transfected vs mock cells
T1 sequence (Q9R0W2 1-555): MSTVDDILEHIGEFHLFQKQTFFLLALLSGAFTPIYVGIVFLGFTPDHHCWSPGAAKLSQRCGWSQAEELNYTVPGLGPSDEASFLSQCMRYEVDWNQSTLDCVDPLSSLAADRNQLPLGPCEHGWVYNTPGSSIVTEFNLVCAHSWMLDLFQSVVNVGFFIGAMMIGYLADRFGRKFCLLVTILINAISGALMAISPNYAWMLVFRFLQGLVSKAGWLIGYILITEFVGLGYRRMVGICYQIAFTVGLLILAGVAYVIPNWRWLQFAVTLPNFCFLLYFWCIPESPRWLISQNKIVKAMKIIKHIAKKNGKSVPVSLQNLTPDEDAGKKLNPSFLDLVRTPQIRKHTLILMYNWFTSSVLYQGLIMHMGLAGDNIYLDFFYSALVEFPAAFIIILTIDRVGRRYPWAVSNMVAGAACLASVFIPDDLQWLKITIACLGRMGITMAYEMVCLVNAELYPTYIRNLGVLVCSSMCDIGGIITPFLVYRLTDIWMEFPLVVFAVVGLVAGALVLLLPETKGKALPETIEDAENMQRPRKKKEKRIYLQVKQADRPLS

human NTCP = target: T2, human NTCP (Homo sapiens, UniProt Q14973); test: Cellular transport assay, HEK-293 cells expressing human NTCP; details: Danshen phenolic acid at 100 μM final concentration, 10 min; human NTCP-transfected vs mock cells
T2 sequence (Q14973 1-349): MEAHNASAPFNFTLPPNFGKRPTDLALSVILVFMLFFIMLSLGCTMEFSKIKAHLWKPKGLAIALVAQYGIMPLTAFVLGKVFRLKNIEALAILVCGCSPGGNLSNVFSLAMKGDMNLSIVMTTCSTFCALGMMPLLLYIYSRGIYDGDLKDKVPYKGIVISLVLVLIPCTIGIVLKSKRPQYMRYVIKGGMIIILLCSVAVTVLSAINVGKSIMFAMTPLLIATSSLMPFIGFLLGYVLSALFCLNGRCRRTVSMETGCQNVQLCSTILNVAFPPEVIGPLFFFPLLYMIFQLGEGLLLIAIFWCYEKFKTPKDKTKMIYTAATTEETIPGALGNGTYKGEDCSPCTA

human PEPT1 = target: T3, human PEPT1 (Homo sapiens, UniProt P46059); test: Cellular transport assay, HEK-293 cells expressing human PEPT1; details: Danshen phenolic acid at 100 μM final concentration, 10 min, incubation pH 6.0; human transporter PEPE1 [sic], transfected vs mock cells
T3 sequence (P46059 1-708): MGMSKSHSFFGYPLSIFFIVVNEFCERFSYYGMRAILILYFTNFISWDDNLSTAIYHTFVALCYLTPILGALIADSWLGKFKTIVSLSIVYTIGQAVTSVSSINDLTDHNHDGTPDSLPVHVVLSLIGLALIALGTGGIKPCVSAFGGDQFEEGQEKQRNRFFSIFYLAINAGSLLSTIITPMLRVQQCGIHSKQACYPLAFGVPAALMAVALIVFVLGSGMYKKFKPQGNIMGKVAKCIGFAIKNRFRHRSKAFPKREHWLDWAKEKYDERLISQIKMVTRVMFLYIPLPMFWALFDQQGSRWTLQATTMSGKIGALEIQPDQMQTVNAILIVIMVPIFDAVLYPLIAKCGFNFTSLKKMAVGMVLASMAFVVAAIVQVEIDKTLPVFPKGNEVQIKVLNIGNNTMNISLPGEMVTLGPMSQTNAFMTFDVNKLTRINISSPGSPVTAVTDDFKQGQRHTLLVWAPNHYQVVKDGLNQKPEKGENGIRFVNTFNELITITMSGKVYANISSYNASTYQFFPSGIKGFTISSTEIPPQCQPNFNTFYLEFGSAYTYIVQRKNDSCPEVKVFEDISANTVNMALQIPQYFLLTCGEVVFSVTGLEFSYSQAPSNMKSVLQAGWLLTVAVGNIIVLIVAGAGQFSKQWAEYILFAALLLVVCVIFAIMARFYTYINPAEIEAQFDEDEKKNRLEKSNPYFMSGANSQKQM

human PEPT2 = target: T4, human PEPT2 (Homo sapiens, UniProt Q16348); test: Cellular transport assay, HEK-293 cells expressing human PEPT2; details: Danshen phenolic acid at 100 μM final concentration, 10 min, incubation pH 6.0; human PEPT2-transfected vs mock cells
T4 sequence (Q16348 1-729): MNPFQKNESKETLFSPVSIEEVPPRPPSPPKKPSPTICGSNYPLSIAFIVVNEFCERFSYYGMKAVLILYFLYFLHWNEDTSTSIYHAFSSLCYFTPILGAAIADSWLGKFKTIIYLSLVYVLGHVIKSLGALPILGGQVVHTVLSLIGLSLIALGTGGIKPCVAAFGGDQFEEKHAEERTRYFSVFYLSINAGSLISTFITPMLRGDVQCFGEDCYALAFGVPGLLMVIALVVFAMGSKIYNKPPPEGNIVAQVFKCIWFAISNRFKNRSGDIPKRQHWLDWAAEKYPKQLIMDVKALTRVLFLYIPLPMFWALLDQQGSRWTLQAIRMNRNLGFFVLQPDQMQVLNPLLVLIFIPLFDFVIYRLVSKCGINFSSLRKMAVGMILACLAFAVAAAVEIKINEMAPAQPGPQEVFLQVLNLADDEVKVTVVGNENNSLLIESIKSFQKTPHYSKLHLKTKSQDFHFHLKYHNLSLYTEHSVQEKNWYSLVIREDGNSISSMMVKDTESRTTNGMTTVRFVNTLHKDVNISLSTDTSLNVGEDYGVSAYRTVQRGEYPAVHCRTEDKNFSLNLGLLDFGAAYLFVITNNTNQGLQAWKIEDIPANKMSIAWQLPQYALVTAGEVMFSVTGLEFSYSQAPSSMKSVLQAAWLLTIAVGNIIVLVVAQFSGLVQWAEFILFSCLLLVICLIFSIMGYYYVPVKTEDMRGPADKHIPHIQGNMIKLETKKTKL

Compound | TransportTC/TransportMC ratio (net transport ratio) (rat Oct2) | TransportTC/TransportMC ratio (net transport ratio) (human NTCP) | TransportTC/TransportMC ratio (net transport ratio) (human PEPT1) | TransportTC/TransportMC ratio (net transport ratio) (human PEPT2)
O=C(/C=C/c1ccc(O)c2c1[C@H](C(=O)O)[C@@H](c1ccc(O)c(O)c1)O2)O[C@H](Cc1ccc(O)c(O)c1)C(=O)O [Lithospermic acid, lithospermic acid] | 1.11 ± 0.32 | 2.44 ± 0.13 | 1.86 ± 0.36 | 0.74 ± 0.06
O=C(O)c1ccc(O)c(O)c1 [Protocatechuic acid, protocatechuic acid] | 0.92 ± 0.08 | 1.26 ± 0.15 | 0.93 ± 0.34 | 1.43 ± 0.32
O=C(O)Cc1c(/C=C/C(=O)O[C@H](Cc2ccc(O)c(O)c2)C(=O)O)ccc(O)c1O [Salvianolic acid D, salvianolic acid D] | 1.44 ± 0.24 | 2.09 ± 0.36 | 1.06 ± 0.20 | 1.03 ± 0.11
salvianolic acid B | 1.08 ± 0.21 | 2.88 ± 0.21 | 2.05 ± 0.22 | 1.06 ± 0.12
